Experiments:
[1] = Metabolic stability in liver S9 fraction (unknown origin) assessed as parent compound remaining incubated for 10 mins; assay type: ADME, subcellular; conditions: human, read-out: Stability
[2] = Metabolic stability in liver S9 fraction (unknown origin) assessed as parent compound remaining incubated for 60 mins; assay type: ADME, subcellular; conditions: human, read-out: Stability
[3] = target: T1, Nuclear receptor ROR-gamma (Mus musculus, UniProt P51450); assay: Inhibition of mouse RORgamma ligand binding domain (Isoleucine 251 to Lysine 516) expressed in CHOK1 cells incubated for 2 days by Gal4 luciferase reporter gene assay; assay type: cell-based, CHO-K1
T1 sequence (P51450 whole entry): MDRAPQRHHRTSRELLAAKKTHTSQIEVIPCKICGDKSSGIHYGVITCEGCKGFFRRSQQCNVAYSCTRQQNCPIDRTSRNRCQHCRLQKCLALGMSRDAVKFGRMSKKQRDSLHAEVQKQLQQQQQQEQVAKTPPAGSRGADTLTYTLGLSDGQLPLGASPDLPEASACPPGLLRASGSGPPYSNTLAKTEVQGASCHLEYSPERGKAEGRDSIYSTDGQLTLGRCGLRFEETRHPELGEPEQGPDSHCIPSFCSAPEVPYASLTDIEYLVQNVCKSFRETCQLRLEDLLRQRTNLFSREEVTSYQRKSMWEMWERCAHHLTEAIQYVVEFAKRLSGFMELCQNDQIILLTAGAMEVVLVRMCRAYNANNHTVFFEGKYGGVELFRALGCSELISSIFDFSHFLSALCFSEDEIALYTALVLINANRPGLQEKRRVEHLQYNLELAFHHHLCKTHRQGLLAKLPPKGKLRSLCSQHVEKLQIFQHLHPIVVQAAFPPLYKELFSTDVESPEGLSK

[4] = target: T2, Nuclear receptor ROR-gamma (Homo sapiens, UniProt P51449)
T2 sequence (P51449 whole entry): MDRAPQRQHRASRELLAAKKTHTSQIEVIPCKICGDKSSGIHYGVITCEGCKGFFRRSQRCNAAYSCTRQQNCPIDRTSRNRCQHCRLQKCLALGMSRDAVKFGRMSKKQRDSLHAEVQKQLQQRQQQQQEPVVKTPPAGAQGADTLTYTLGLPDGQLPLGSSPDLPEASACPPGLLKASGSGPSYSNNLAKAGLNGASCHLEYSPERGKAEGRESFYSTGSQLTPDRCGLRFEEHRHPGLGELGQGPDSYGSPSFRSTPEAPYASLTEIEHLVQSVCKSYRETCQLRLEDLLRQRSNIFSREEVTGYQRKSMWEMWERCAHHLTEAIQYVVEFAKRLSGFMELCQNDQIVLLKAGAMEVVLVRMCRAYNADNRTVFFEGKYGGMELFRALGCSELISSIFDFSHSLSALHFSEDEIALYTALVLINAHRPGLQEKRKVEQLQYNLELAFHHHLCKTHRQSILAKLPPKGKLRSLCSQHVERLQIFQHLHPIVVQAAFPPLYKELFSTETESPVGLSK
Description: Inhibition of human RORgamma ligand binding domain (Serine 253 to Lysine 518 residues) expressed in CHOK1 cells incubated for 2 days by Gal4 luciferase reporter gene assay

[5] = target: T2, Nuclear receptor ROR-gamma; assay: Inhibition of human GST-tagged RORgamma ligand binding domain (253 to 518 residues) expressed in sf9 cells using biotin-EEPSLLKKLLLAPA by FRET assay
[6] = Metabolic stability in human liver microsomes assessed as parent compound remaining incubated for 10 mins; assay type: ADME; conditions: read-out: Stability
[7] = target: T3, Cytochrome P450 3A4 (Homo sapiens, UniProt P08684); assay: Inhibition of human CYP3A4
T3 sequence (P08684 whole entry): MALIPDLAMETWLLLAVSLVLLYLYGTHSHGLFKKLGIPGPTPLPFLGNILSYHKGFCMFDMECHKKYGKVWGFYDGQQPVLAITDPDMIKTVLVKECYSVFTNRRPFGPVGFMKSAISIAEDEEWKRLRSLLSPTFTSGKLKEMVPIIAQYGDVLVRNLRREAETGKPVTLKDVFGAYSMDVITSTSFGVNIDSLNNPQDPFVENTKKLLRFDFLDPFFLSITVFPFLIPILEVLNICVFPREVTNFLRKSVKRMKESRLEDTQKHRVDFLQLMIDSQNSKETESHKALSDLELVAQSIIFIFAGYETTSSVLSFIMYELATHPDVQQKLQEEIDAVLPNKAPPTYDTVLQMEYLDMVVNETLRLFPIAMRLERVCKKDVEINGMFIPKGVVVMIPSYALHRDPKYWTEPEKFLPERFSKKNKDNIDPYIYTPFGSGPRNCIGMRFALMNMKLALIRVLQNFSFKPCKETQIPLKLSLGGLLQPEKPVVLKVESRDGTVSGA

[8] = target: T3, Cytochrome P450 3A4; assay: Inhibition of CYP3A4 in human liver microsomes using midazolam as substrate preincubated with substrate for 5 mins followed by NADPH addition measured after 20 mins by HPLC analysis; assay type: ADME
[9] = target: Oxysterols receptor LXR-alpha (Mus musculus, UniProt Q9Z0Y9); assay: Inhibition of mouse LXRalpha
Oxysterols receptor LXR-alpha, sequence (Q9Z0Y9 whole entry): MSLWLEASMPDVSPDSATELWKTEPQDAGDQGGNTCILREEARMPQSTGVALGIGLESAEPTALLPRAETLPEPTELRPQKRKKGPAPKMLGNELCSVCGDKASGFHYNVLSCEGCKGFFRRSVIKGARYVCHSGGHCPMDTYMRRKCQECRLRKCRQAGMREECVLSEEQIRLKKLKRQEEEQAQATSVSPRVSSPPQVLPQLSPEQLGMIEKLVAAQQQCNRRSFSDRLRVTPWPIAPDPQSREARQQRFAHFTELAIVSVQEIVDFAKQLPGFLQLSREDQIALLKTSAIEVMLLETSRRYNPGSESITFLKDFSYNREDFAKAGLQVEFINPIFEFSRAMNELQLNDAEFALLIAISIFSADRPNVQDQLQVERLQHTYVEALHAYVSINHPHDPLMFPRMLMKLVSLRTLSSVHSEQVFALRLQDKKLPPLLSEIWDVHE

[10] = target: Peroxisome proliferator-activated receptor gamma (Homo sapiens, UniProt P37231); assay: Inhibition of human PPARgamma
Peroxisome proliferator-activated receptor gamma, sequence (P37231 whole entry): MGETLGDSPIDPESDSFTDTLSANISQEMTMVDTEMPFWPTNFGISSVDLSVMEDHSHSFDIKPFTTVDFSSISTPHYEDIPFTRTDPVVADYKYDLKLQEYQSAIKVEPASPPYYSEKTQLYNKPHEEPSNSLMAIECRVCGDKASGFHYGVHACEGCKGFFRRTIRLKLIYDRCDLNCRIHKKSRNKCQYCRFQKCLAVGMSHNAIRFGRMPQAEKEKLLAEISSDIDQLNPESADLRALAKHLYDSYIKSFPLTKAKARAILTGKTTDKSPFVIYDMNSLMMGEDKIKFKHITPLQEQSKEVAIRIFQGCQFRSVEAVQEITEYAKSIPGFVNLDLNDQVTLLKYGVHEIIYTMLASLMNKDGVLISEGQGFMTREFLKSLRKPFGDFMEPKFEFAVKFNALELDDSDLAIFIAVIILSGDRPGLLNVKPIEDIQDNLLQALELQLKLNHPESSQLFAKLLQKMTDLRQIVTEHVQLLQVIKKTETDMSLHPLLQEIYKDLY

[11] = target: Glucocorticoid receptor (Mus musculus, UniProt P06537); assay: Inhibition of mouse GR
[12] = target: Peroxisome proliferator-activated receptor delta (Homo sapiens, UniProt Q03181); assay: Inhibition of human PPARdelta
[13] = target: Retinoic acid receptor RXR-alpha (Homo sapiens, UniProt P19793); assay: Inhibition of human RXRalpha
[14] = target: Cytochrome P450 2D6 (Homo sapiens, UniProt P10635); assay: Inhibition of CYP2D6 in human liver microsomes using bufuralol as substrate preincubated with substrate for 5 mins followed by NADPH addition measured after 20 mins by HPLC analysis; assay type: ADME
[15] = target: Cytochrome P450 2A6 (Homo sapiens, UniProt P11509); assay: Inhibition of CYP2A6 in human liver microsomes using coumarin as substrate preincubated with substrate for 5 mins followed by NADPH addition measured after 20 mins by HPLC analysis; assay type: ADME
Cytochrome P450 2A6, sequence (P11509 whole entry): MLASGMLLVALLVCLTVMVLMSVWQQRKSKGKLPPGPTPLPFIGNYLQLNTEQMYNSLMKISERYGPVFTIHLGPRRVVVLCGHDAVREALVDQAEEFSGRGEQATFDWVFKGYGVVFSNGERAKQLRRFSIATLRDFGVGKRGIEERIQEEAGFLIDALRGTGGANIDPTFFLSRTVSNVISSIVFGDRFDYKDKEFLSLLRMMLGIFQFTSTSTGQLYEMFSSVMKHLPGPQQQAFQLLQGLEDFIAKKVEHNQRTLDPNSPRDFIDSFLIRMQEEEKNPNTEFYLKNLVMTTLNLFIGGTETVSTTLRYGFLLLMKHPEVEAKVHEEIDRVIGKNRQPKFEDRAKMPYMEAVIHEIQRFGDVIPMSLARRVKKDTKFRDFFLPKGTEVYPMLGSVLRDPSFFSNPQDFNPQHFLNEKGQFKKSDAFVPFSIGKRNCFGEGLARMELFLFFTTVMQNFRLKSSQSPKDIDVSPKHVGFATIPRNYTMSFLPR

[16] = target: Cytochrome P450 2C19 (Homo sapiens, UniProt P33261); assay: Inhibition of CYP2C19 in human liver microsomes using S-mephenytoin as substrate preincubated with substrate for 5 mins followed by NADPH addition measured after 20 mins by HPLC analysis; assay type: ADME
[17] = system: Mus musculus; assay: Inhibition of MOG/PTX/CD3 antibody-induced IL-17 production in po dosed C57BL/6 mouse plasma adminstered 3 to 8 hrs before CD3 antibody injection by ELISA; assay type: functional, organism-based
[18] = target: Cytochrome P450 2C9 (Homo sapiens, UniProt P11712); assay: Inhibition of CYP2C9 in human liver microsomes using diclofenac as substrate preincubated with substrate for 5 mins followed by NADPH addition measured after 20 mins by HPLC analysis; assay type: ADME
Cytochrome P450 2C9, sequence (P11712 whole entry): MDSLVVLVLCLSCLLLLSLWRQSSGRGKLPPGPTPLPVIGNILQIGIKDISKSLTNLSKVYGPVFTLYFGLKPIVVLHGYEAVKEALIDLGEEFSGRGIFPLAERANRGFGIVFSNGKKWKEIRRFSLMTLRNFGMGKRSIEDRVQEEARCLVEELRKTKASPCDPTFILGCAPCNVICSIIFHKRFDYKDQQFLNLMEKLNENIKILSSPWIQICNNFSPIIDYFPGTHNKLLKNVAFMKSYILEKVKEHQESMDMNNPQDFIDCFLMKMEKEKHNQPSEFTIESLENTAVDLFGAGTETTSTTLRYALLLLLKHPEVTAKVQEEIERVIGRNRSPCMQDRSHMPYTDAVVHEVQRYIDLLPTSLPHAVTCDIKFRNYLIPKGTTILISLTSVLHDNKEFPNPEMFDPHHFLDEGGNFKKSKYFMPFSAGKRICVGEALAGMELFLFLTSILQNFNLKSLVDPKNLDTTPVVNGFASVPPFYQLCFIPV

[19] = target: Peroxisome proliferator-activated receptor alpha (Homo sapiens, UniProt Q07869); assay: Inhibition of human PPARalpha
Peroxisome proliferator-activated receptor alpha, sequence (Q07869 whole entry): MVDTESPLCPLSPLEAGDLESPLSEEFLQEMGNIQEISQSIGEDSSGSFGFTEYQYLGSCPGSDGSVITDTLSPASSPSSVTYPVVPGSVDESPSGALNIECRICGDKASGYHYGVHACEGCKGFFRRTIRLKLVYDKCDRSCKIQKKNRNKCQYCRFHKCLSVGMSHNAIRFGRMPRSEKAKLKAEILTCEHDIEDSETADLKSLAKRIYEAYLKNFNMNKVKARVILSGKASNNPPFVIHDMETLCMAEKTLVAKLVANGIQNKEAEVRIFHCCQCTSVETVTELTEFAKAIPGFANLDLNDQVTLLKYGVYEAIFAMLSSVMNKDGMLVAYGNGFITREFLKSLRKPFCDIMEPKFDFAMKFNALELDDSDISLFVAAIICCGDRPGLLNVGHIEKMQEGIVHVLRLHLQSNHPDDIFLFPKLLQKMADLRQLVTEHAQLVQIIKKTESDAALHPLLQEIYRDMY

[20] = target: Retinoic acid receptor alpha (Homo sapiens, UniProt P10276); assay: Inhibition of human RARalpha
Retinoic acid receptor alpha, sequence (P10276 whole entry): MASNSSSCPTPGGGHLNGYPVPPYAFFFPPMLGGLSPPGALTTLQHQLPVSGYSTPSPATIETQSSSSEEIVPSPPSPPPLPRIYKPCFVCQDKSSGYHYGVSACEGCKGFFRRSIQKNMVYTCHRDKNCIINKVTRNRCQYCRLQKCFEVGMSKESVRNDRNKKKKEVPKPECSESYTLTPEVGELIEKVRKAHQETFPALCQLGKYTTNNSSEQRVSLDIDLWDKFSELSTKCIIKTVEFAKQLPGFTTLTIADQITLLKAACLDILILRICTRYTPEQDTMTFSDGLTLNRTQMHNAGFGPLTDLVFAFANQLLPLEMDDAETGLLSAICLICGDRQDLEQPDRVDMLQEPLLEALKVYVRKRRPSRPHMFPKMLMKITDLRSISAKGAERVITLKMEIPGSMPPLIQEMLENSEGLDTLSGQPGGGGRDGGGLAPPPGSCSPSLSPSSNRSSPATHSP

[21] = target: Progesterone receptor (Homo sapiens, UniProt P06401); assay: Inhibition of human PR
[22] = target: Nuclear receptor ROR-alpha (Homo sapiens, UniProt P35398); assay: Inhibition of human RORalpha
[23] = target: Bile acid receptor (Homo sapiens, UniProt Q96RI1); assay: Inhibition of human FXR
Bile acid receptor, sequence (Q96RI1 whole entry): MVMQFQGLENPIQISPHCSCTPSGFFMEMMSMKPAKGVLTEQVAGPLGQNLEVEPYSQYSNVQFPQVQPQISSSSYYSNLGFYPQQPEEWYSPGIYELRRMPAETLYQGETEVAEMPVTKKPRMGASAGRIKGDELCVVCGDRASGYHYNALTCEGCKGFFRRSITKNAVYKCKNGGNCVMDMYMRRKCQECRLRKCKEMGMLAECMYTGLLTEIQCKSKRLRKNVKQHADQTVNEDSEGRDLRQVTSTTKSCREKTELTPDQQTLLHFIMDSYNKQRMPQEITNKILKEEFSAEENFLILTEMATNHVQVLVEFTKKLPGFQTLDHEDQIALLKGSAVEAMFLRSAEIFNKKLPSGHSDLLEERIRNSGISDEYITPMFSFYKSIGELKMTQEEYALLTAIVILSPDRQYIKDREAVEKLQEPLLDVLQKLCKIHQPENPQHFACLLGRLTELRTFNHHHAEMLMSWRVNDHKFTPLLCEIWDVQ

[24] = target: Steroidogenic factor 1 (Homo sapiens, UniProt Q13285); assay: Inhibition of human SF-1 receptor
[25] = target: Vitamin D3 receptor (Homo sapiens, UniProt P11473); assay: Inhibition of human VDR
Vitamin D3 receptor, sequence (P11473 whole entry): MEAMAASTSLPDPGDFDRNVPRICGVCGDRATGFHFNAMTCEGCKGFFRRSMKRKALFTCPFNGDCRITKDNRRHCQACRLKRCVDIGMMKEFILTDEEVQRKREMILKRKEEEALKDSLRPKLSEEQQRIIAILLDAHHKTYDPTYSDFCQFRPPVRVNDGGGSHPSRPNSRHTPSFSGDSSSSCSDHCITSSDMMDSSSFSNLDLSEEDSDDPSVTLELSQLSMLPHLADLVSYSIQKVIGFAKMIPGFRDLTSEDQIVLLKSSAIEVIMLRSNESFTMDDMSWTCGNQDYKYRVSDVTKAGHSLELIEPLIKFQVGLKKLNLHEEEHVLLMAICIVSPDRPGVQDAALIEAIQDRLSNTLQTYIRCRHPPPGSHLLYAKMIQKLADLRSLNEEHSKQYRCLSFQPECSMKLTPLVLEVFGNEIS

[26] = target: Retinoic acid receptor beta (Homo sapiens, UniProt P10826); assay: Inhibition of human RARbeta
[27] = target: Nuclear receptor ROR-beta (Homo sapiens, UniProt Q92753); assay: Inhibition of human RORbeta
[28] = target: Cytochrome P450 1A2 (Homo sapiens, UniProt P05177); assay: Inhibition of CYP1A2 in human liver microsomes using ethoxyresorufin as substrate preincubated with substrate for 5 mins followed by NADPH addition measured after 20 mins by HPLC analysis; assay type: ADME
Cytochrome P450 1A2, sequence (P05177 whole entry): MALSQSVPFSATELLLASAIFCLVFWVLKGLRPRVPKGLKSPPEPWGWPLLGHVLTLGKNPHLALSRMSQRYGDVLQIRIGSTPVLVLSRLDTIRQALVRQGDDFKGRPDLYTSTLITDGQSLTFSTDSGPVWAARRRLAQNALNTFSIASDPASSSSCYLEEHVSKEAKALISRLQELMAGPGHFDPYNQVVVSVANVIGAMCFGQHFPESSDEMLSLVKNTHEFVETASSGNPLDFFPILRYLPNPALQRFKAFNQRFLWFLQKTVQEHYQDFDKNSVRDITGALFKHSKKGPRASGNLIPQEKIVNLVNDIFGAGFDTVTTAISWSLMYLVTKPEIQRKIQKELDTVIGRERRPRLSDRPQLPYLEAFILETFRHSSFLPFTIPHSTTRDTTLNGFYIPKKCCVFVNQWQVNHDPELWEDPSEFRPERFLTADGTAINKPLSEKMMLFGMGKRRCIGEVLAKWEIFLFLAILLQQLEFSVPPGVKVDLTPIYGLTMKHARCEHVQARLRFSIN

With Cc1ccc(NC(=O)CCc2nnc([C@H]3C[C@H](CC(C)C)C3)n2C2CC2)c(C)c1 the remaining at 10 min [1] was 68%, the remaining at 1 h [2] was 31% and the EC50 [3] was 0.053 µM. For the same compound, the EC50 [4] was 0.4 µM.
With Cc1ccc(NC(=O)CCc2nnc(CCC3CCCCC3)n2C2CC2(F)F)c(C)c1 (stereo not given) the remaining at 10 min [1] was 75%, the remaining at 1 h [2] was 59% and the EC50 [3] was 0.5 µM. It also gave an EC50 [4] of 0.92 µM.
Work on CCn1c(CC(C)C(=O)Nc2cccc3ccccc23)nnc1C1Cc2ccccc2C1 (racemic) yielded an EC50 [3] of 0.67 µM and an EC50 [4] of 1.3 µM.
CCn1c(SCC(=O)Nc2cccc3ccccc23)nnc1C1Cc2ccccc2C1 showed an EC50 [5] of 0.85 µM, a remaining at 10 min [6] of 18% and an EC50 [3] of 0.7 µM. It also gave an IC50 [7] of 4 µM and an EC50 [4] of 1.7 µM.
For CCn1c(CCC(=O)Nc2cccc3ccccc23)nnc1CCC1CCCCC1, the EC50 [3] was 0.3 µM and the EC50 [4] was 0.82 µM.
In the case of CCn1c(CCC(=O)Nc2cccc3ccccc23)nnc1C1CCCCC1, the EC50 [3] is reported as 4.5 µM and the EC50 [4] is reported as greater than 20 µM.
Cc1ccc(NC(=O)CCc2nnc(-c3ccc(CC(C)C)cc3)n2C2CC2)c(C)c1 showed a remaining at 10 min [1] of 84%, a remaining at 1 h [2] of 55% and an EC50 [3] of 0.12 µM. For the same compound, the EC50 [4] was 1.8 µM.
CCC(C)CCc1nnc(CCC(=O)Nc2ccc(C)cc2C)n1C1CC1 (racemic) showed a remaining at 10 min [1] of 63%, a remaining at 1 h [2] of 27% and an EC50 [3] of 1.4 µM. For the same compound, the EC50 [4] was 3.9 µM.
For Cc1ccc(NC(=O)[C@H]2C[C@@H](O)C[C@@H]2c2nnc([C@H]3C[C@@H](CC(C)C)C3)n2C2CC2)c(C)c1, the IC50 [8] was 3 µM, the remaining at 10 min [1] was 87% and the remaining at 1 h [2] was 76%. For the same compound, the EC50 [3] was 0.038 µM and the EC50 [4] was 0.098 µM.
With Cc1ccc(NC(=O)[C@H]2CN(C)CC[C@@H]2c2nnc([C@H]3C[C@@H](CC(C)C)C3)n2C2CC2)c(C)c1 (racemic) the remaining at 10 min [1] was 53%, the remaining at 1 h [2] was 21% and the EC50 [3] was 0.29 µM. The EC50 [4] was 0.23 µM.
For CCn1c(CCC(=O)Nc2cccc3ccccc23)nnc1CCC(C)(C)C, the EC50 [3] was 0.83 µM and the EC50 [4] was 6.7 µM.
Cc1ccc(NC(=O)CCc2nnc(-c3cc(CC(C)C)on3)n2C2CC2)c(C)c1 gave a remaining at 10 min [1] of 83%, a remaining at 1 h [2] of 31% and an EC50 [3] of 0.054 µM. It also gave an EC50 [4] of 0.45 µM.
In the case of CCn1c(C(C)CC(=O)Nc2cccc3ccccc23)nnc1C1Cc2ccccc2C1 (racemic), the EC50 [3] is reported as 1.1 µM and the EC50 [4] is reported as 1.7 µM.
CCn1c(CCC(=O)Nc2cccc3ccccc23)nnc1C1Cc2ccccc2C1 showed an EC50 [3] of 0.4 µM and an EC50 [4] of 1 µM.
Work on CCn1c(CCC(=O)Nc2ccc(C)cc2C)nnc1CCC1CCCCC1 yielded a remaining at 10 min [1] of 36%, a remaining at 1 h [2] of 0% and a remaining at 10 min [6] of 36%. The EC50 [3] was 0.6 µM and the EC50 [4] was 0.9 µM.
Cc1ccc(NC(=O)CCc2nnc([C@H]3C[C@@H](CC(C)C)C3)n2C2CC2)c(C)c1 showed an IC50 [8] of 5 µM, a remaining at 10 min [1] of 70% and a remaining at 1 h [2] of 39%. For the same compound, the EC50 [3] was 0.035 µM and the EC50 [4] was 0.14 µM.
In the case of CCn1c(CCC(=O)Nc2cccc(Cl)c2C)nnc1CCC1CCCCC1, the EC50 [3] is reported as 0.64 µM and the EC50 [4] is reported as 0.96 µM.
CCn1c(CCC(=O)Nc2cccc3ccccc23)nnc1CC1CCCCC1 gave an EC50 [3] of 2.6 µM and an EC50 [4] of 14 µM.
With Cc1ccc(NC(=O)CCc2nnc(CCCC(C)C)n2C2CC2)c(C)c1 the remaining at 10 min [1] was 67%, the remaining at 1 h [2] was 27% and the EC50 [3] was 0.61 µM. For the same compound, the EC50 [4] was 1.7 µM.
Work on Cc1ccc(NC(=O)CCc2nnc(CCCC(C)(C)C)n2C2CC2)c(C)c1 yielded a remaining at 10 min [1] of 71%, a remaining at 1 h [2] of 51% and an EC50 [3] of 1.3 µM. The EC50 [4] was 2.8 µM.
Work on CCn1c(C(O)CC(=O)Nc2cccc3ccccc23)nnc1C1Cc2ccccc2C1 (racemic) yielded an EC50 [3] greater than 20 µM and an EC50 [4] greater than 20 µM.
In the case of CCn1c(CCC(=O)Nc2cccc3ccccc23)nnc1CCC(C)C, the EC50 [3] is reported as 1.4 µM and the EC50 [4] is reported as 13 µM.
Compound CCn1c(CCC(=O)Nc2cc(C)cc(C)c2)nnc1CCC1CCCCC1 has an EC50 [3] of 3.1 µM and an EC50 [4] of 2.9 µM.
Cc1ccc(NC(=O)CCc2nnc(CCC3CCCCC3)n2C2CCC2)c(C)c1 showed a remaining at 10 min [1] of 49%, a remaining at 1 h [2] of 27% and an EC50 [3] of 1.8 µM. It also gave an EC50 [4] of 9.5 µM.
CCn1c(CCC(=O)Nc2cccc3ccccc23)nnc1CCc1ccccc1 showed an EC50 [3] of 0.63 µM and an EC50 [4] of 2.5 µM.
In the case of CCn1c(OCC(=O)Nc2cccc3ccccc23)nnc1C1Cc2ccccc2C1, the EC50 [3] is reported as greater than 20 µM and the EC50 [4] is reported as greater than 20 µM.
Work on Cc1ccc(NC(=O)CCc2nnc(CCC3CCCCC3)n2C2CC2)c(C)c1 yielded a remaining at 10 min [1] of 55%, a remaining at 1 h [2] of 23% and an EC50 [3] of 0.45 µM. For the same compound, the EC50 [4] was 0.98 µM.
CC(=O)N1C[C@H](C(=O)Nc2ccc(C)cc2C)[C@@H](c2nnc([C@H]3C[C@@H](CC(C)C)C3)n2C2CC2)C1 gave an EC50 [9] greater than 20 µM, an EC50 [10] greater than 20 µM and an IC50 [8] greater than 50 µM. For the same compound, the “inhibition (INH)” value ([8]; human, microsomes, 20 min, TDE = time-dependent effect) was “tde”, the EC50 [11] was greater than 20 µM and the EC50 [12] was greater than 20 µM. For the same compound, the remaining at 10 min [1] was 86%, the EC50 [13] was greater than 20 µM and the IC50 [14] was greater than 50 µM. For the same compound, the IC50 [15] was greater than 50 µM, the IC50 [16] was greater than 50 µM and the inhibition [17] was “Dose-dependent effect”. For the same compound, the remaining at 1 h [2] was 61%, the IC50 [18] was greater than 50 µM and the EC50 [19] was greater than 20 µM. For the same compound, the EC50 [20] was greater than 20 µM, the EC50 [21] was greater than 20 µM and the EC50 [22] was greater than 20 µM. For the same compound, the EC50 [23] was greater than 20 µM, the EC50 [24] was greater than 20 µM and the EC50 [25] was greater than 20 µM. For the same compound, the EC50 [26] was greater than 20 µM, the EC50 [27] was greater than 20 µM and the IC50 [28] was greater than 50 µM.
